# Data from paper PMC5907308, “21st Brazilian Diabetes Society Congress” (Diabetology & Metabolic Syndrome, 2018).
# Key:
# [1] = test system: patient with T2DM; experiment: Case report: endogenous hyperinsulinism in T2DM; format: in vivo, human; conditions: Acarbose prescribed 2 years ago; Verapamil 80 mg/day with dietary changes
# Text: patient three diagnosed with type 2 diabetes (T2DM), using insulin for 22 years. Eight years ago, they started to present frequent episodes of symptomatic hypoglycemia, preferably in fasting periods. There was no cessation of the episodes even with the suspension of all insulin and antidiabetic drugs, which lead to an investigation with a prolonged fasting test (Table 1). The test confirmed endogenous hyperinsulinism (EH). […] They were then submitted to a selective arterial calcium stimulation test (SACST), whose results excluded insulinoma. […] Verapamil (80 mg/day) was initiated along with dietary changes, with good response.
# [2] = test system: T2DM patients; conditions: monotherapy; systematic review and mixed treatment meta-analyses comparison of RCTs; cited from earlier work
# Text: Results: All DPP4 presented a statistically significant change of HbA1c from baseline compared to placebo (alogliptin − 0.797 (95%CI − 0.943 to − 0.651); linagliptin − 0.734 (CI − 0.88 to − 0.588); saxagliptin − 0.593 (CI − 0.811 to − 0.375); sitagliptin -0.788 (CI − 0.954 to − 0.622); vildagliptin −0.60 (CI − 0.80 to − 0.40)). Based on drug acquisition costs, alogliptin monotherapy presented the lowest annual treatment costs and the lowest cost for every 1% HbA1c reduction followed by saxagliptin, linagliptin, sitagliptin and vildagliptin (Table 1).
# [3] = test system: patient with DM2 and PAH; experiment: Vildagliptin in T2DM with pulmonary arterial hypertension, case report; format: in vivo, human
# Text: The main etiology of pulmonary arterial hypertension (PAH) is idiopathic. In more than one-third of these cases, patients have criteria for metabolic syndrome. Alone, obesity, dyslipidemia and type 2 diabetes mellitus (T2DM) have a direct and indirect relationship in the pathophysiology of PAH. The presence of glucagon-like peptide-1 (GLP1) receptors in different organs of our body gives this incretin several pleiotropic effects, in addition to its already well established role in the treatment of obesity and T2DM. […] Considering this and using a weight-neutral incretin-based therapy, we opted for the use of a DPP4 inhibitor (vildagliptin 50 mg 2×/day) to increase GLP1 levels in a patient with DM2, hypertension, dyslipidemia, obesity grade I (BMI of 30.2 kg/m2) and PAH.
# [4] = test system: hypothalamus of young rats; experiment: Chronic ICV treatment with the nitric oxide donor GSNO; format: in vivo, rat
# [5] = test system: patients with T1DM; experiment: High dose vitamin D for 12 weeks, DKD/albuminuria pilot study; format: in vivo, human
# Text: Methods: 22 patients received doses of 4000 and 10000 IU/day of cholecalciferol for 12 weeks according to patient’s previous VD levels. They were submitted to continuous glucose monitoring system (CGMS), 24-h ABPM and urine albumin-to-creatinine ratio (UACR) before and after VD supplementation.
# [6] = test system: patients after Roux-en-Y gastric bypass; experiment: Postprandial hyperinsulinemic hypoglycemia after RYGB, case series; format: in vivo, human
# Procedure: Cases report: Case (1) A person developed postprandial hypoglycemic episodes 6 years after Roux-en-Y gastric bypass (RYGB). A mixed meal tolerance test (MMTT, 500 kcal, 20% protein, 20% fat and 60% carbohydrates) was performed, leading to symptomatic postprandial hyperinsulinemic hypoglycemia (PHH) with a nadir of 45 mg/dL at 120 min (insulin of 8 mU/L; C-peptide of 3.21 ng/mL). […] Cases 2 and 3). Two […] women presented hypoglycemia following meals 3 and 5 years after RYGB. MMTT (120 min): glycemia of 34 mg/dL, insulin of 17 mU/L and C-peptide of 6.23 ng/mL and, in the second one, glycemia of 52 mg/dL, insulin of 9 mU/L and C-peptide of 2.7 ng/mL. PT and MRCP were normal in both cases. […] Case 4). A person who underwent RYGB 1.5 years ago reported hypoglycemic episodes in the last 6 months. MMTT: glycemia of 26 mg/dL at 150 min, insulin of 34 mU/L and C-peptide of 6.03 ng/mL. […] They were submitted to distal pancreatectomy and symptoms disappeared after diazoxid and hydrochlorothiazide. Case 5). A person developed hypoglycemia 10 years after RYGB. […] MMTT: glycemia of 43 mg/dL at 120 min, insulin of 100 mU/L and C-peptide of 1.95 ng/mL. […] Antiinsulin antibodies were negative in all cases (Table 1).
# [7] = test system: patient with metastatic melanoma; experiment: Ipilimumab endocrinological side effects, case report; format: in vivo, human
# Text: In the last couple of years, monoclonal antibodies have emerged as effective therapies for advanced neoplasms. […] CTLA-4 is expressed on the surface of T lymphocytes and transmits an inhibitory signal through its B7-1/2 linker. In blocking the CTLA-4, Ipilimumab promotes an enhancement of T cell activation against neoplasms. During the treatment, the activation of these cells can also be directed to different organs/tissues and affect the skin (dermatitis), gastrointestinal tract (colitis, pancreatitis, hepatitis), lung (pneumonitis) and endocrine glands (thyroiditis, hypophysitis, adrenalitis). […] The patient is a person previously healthy, with a diagnosis of metastatic melanoma. They were subjected to surgical removal of the skin lesion and infraclavicular lymph node, in addition to adjuvant treatment with Ipilimumab. They performed four cycles of this medication and evolved with asthenia, headache, abdominal pain and hyperglycemia, about 3 weeks after the last cycle. They were hospitalized and during the medical investigation the following were detected: low ACTH, low cortisol and hyperprolactinemia—characterizing hypophysitis. Furthermore, there was an elevation of amylase and lipase and hyperglycemia, with levels above 400 mg/dL, requiring insulinization. […]
# [8] = test system: patient with T2DM; format: in vivo; conditions: systemic treatment
# Text: After evaluation and exclusion of other diagnoses (medication use, trauma, or facial surgery) as well as exclusion of another kind of diabetic neuropathy, such as sensitive or cardiac autonomic neuropathy, the hypothesis of diabetic gustatory sweating (DGS) was established.
# [9] = test system: patient with BSCL; experiment: Case report: metreleptin in Berardinelli-Seip congenital lipodystrophy; format: in vivo, human
# Procedure: Case presentation: Two brothers with neonatal diagnosis of Berardinelli-Seip Congenital Lipodystrophy (BSCL), without cases of diabetes or similar diseases in their family. Clinically, both present muscular hypertrophy and acromegaloid features. […] Serum leptin 1 ng/mL (reference range: 2–18). […] Leptin 1.3 ng/mL. In 2016, HbA1C 7.8%, in use of Metformin 2 g/day, pioglitazone and vitamins E, A and D supplementation. […] By that time, Metreleptin was initiated at a 5 mg/day dose (0.07 mg/kg/day) and Metformin was maintained. After 3 months, the patient has HbA1C 5%, triglyceride level 70 mg/dL, TGO 42 U/L and TGP 32 U/L.
compound,measurement,setting,value
COc1ccc(CCN(C)CCCC(C#N)(c2ccc(OC)c(OC)c2)C(C)C)cc1OC (centres unmarked) [Verapamil],response of hypoglycemia episodes,[1],good response
"N[C@@H](CC(=O)N1CCn2c(nnc2C(F)(F)F)C1)Cc1cc(F)c(F)cc1F [Sitagliptin, sitagliptin]",change of HbA1c from baseline compared to placebo,[2],-0.788
N#C[C@@H]1CCCN1C(=O)CNC12CC3CC(CC(O)(C3)C1)C2 [vildagliptin],right ventricular systolic pressure (RVSP),"[3]; 50 mg 2×/day, 6 months after its use, 45 mmHg before",38 mmHg
same,fasting glycemia,[3]; 6 months after its use,111 mg/dL
same,A1c,"[3]; 6 months after its use, without episodes of hypoglycemia",6.0%
same,A1c,[3]; January/2017,6.5%
same,fasting glycemia,[3]; January/2017,112 mg/dL
same,RVSP,"[3]; January/2017, 3 years of follow up",31 mmHg
same,change of HbA1c from baseline compared to placebo,[2],−0.60
N[C@@H](CCC(=O)N[C@@H](CSN=O)C(=O)NCC(=O)O)C(=O)O [GSNO],S-nitrosation of insulin signalling proteins in the hypothalamus,[4],enhance S-NO of IRβ and Akt
same,food intake and body weight,[4],increased food intake and body weight
"C=C1CC[C@H](O)C/C1=C/C=C1\CCC[C@]2(C)[C@@H]([C@H](C)CCCC(C)C)CC[C@@H]12 [VD, cholecalciferol]",patients with DKD at the beginning whose DKD stage improved,"[5]; 8/13 patients, 12 weeks",62%
same,DKD prevalence at the end of the study,"[5]; cholecalciferol 4000 or 10000 IU/day for 12 weeks, n = 22, 68% before",32%
C[C@H]1O[C@H](O[C@H]2[C@H](O)[C@@H](O)[C@@H](O[C@H]3[C@H](O)[C@@H](O)C(O)O[C@@H]3CO)O[C@@H]2CO)[C@H](O)[C@@H](O)[C@@H]1N[C@H]1C=C(CO)[C@@H](O)[C@H](O)[C@H]1O (some centres unmarked) [Acarbose],response of hypoglycemia episodes,[1],no improvement
same,clinical response of postprandial hypoglycemia,[6]; Case 5,controlled their symptoms
same,clinical response of postprandial hypoglycemia,[6]; Cases 2 and 3,Improvement occurred
Ipilimumab,endocrinological side effects,"[7]; four cycles, adjuvant treatment, about 3 weeks after the last cycle","hypophysitis and pancreatitis, in addition to secondary diabetes"
same,"hyperglycemia, levels",[7]; requiring insulinization,above 400 mg/dL
CCN(CC)CC#CCOC(=O)C(O)(c1ccccc1)C1CCCCC1 (centres unmarked) [oxybutynin],response of gustatory sweating,[8],excellent response as early as week 1
same,side effect,[8],mild side effect of xerostomia
Metreleptin: a recombinant leptin analog,HbA1C,"[9]; 3 months of Metreleptin 5 mg/day with Metformin, […] before",5%
same,TGO,[9]; after 3 months,42 U/L
same,TGP,[9]; after 3 months,32 U/L
